Measured values from ChEMBL document CHEMBL1132313, “32-Indolyl ether derivatives of ascomycin: three-dimensional structures of complexes with FK506-binding protein” (J Med Chem, 1999).

Assays:
[1] = Inhibition of calcineurin phosphatase activity by the compound
[2] = Relative binding affinity of compound for FK-506 binding protein (FKBP)
T-cell = assay: Compound was evaluated for inhibition of T-cell proliferation induced by PMA-ionomycin.; type: functional
[3] = Off-rate of FK-506 binding protein (FKBP) drug complex from their complexes with calcineurin.; type: ADME
[4] = Relative binding affinity of compound for FK506 binding protein (FKBP)

CC[C@@H]1/C=C(/C)[C@@H](O)[C@@H](C)C[C@H](OC)[C@H]2O[C@@](O)(C(=O)C(=O)N3CCCC[C@H]3C(=O)O[C@H](/C(C)=C/[C@@H]3CC[C@@H](O)[C@H](OC)C3)[C@H](C)[C@@H](O)CC1=O)[C@H](C)C[C@@H]2OC
IC50 [1]: 2500 nM | IC50 [2]: 0.7 nM

CC[C@@H]1/C=C(/C)[C@@H](O)[C@H](C)C[C@H](OC)C2O[C@@](O)(C(=O)C(=O)N3CCCC[C@H]3C(=O)O[C@H](/C(C)=C/[C@@H]3CC[C@@H](Oc4ccc5c(ccn5C)c4)[C@H](OC)C3)[C@H](C)[C@@H](O)CC1=O)[C@H](C)C[C@@H]2OC
IC50 [1]: 79 nM | T-cell proliferation inhibition (T-cell): 5.1 nM

CC[C@@H]1/C=C(/C)C[C@H](C)C[C@H](OC)C2O[C@@](O)(C(=O)C(=O)N3CCCC[C@H]3C(=O)O[C@H](/C(C)=C/[C@@H]3CC[C@@H](Oc4ccc5c(ccn5CC)c4)[C@H](OC)C3)[C@H](C)[C@@H](O)CC1=O)[C@H](C)C[C@@H]2OC
IC50 [1]: 8.21 nM | IC50 [2]: 27 nM | T-cell proliferation inhibition (T-cell): 0.78 nM

CC[C@@H]1/C=C(/C)C[C@H](C)C[C@H](OC)C2O[C@@](O)(C(=O)C(=O)N3CCCC[C@H]3C(=O)O[C@H](/C(C)=C/[C@@H]3CC[C@@H](Oc4ccc5c(ccn5CCO)c4)[C@H](OC)C3)[C@H](C)[C@@H](O)CC1=O)[C@H](C)C[C@@H]2OC
IC50 [1]: 11.4 nM | IC50 [2]: 5.06 nM | T-cell proliferation inhibition (T-cell): 0.19 nM | Off-rate [3]: 254 min

C=CC[C@@H]1C=C(C)CC(C)C[C@H](OC)[C@H]2O[C@@](O)(C(=O)C(=O)N3CCCC[C@H]3C(=O)O[C@H](/C(C)=C/[C@@H]3CC[C@@H](O)[C@H](OC)C3)[C@H](C)[C@@H](O)CC1=O)[C@H](C)C[C@@H]2OC (single isomer, unassigned) [TACROLIMUS ANHYDROUS]
IC50 [1]: 11.1 nM | T-cell proliferation inhibition (T-cell): 0.3 nM | Off-rate [3]: 15.1 min | IC50 [4]: 0.39 nM
